Test results: article PMC12587574, “Mass balance, pharmacokinetics, metabolism, and excretion of radiolabeled acoziborole, a potential novel treatment for human African trypanosomiasis, following single microtracer oral dose to humans” (Antimicrobial Agents and Chemotherapy, 2025)
“And” between values parts separate entries of the source, which are not always exact repeats. Identical values can stand only once. Like-named read-outs stand apart in the source and are kept apart here.

What was measured:
[1] = set-up: method as in PMID 21738803; conditions: NHPs, cited from earlier work
MDCK-MDR1 cell monolayer = conditions: cited from earlier work
[2] = Metabolite profiling and identification in pools of plasma, urine and feces (UPLC-MS, AMS); type: in vivo, human
Method: Individual pools of plasma (0–336 h, including time points at 1, 4, 9, 12, 24, 48, 72, 96, 120, 168, 240, and 336 h), urine (0–240 h, including time intervals 0–6, 6–12, 12–24, 24–48, 48–72, 72–96, 96–120, 120–168, 168–192, 192–216, and 216–240 h) and feces homogenates (0–240 h, including time intervals 0–6, 6–12, 12–24, 24–48, 48–72, 72–96, 96–120, 120–168, and 168–240 h) were prepared; for plasma this was done according to the method described in reference and for feces by using equal percentages per time point based on total volume. Subsequently, a pool per matrix was prepared by mixing equal volumes of each participant pool. In addition, a plasma pre-dose pool was prepared by mixing equal volumes of each pre-dose sample. For urine and feces, TNO blank pool was used to generate a pre-dose sample. Samples were stored below −18°C. Samples (100 µL plasma, 250 µL urine, and 200 mg feces) were pre-treated and injected onto an ultra-high performance liquid chromatography (UPLC)-MS system (Acquity UPLC system [Waters] coupled to a Q-Exactive [Thermo]; Acquity HSS C18 VanGuard 5 mm × 2.1 mm, 1.8 µm [Waters] pre-column and Acquity HSS C18 100 mm × 2.1 mm, 1.8 µm d.p. [Waters]). Fractions were collected and analyzed off-line by AMS. AMS analysis was performed on an AMS system, consisting of an elemental analyzer, a double gas interface, and a 1 MV multi-element AMS. All fecal homogenate sample analyzes were performed in triplicate. Plasma pre-dose and TNO blank urine and feces pools were used for background correction. The UPLC method qualification included determination of retention time stability and extraction recovery. Metabolites were tentatively assigned to fractions in which activity greater than the baseline was observed, based on retention time and structural information provided by DNDi. Presence of the metabolite was confirmed by accurate mass data from high-resolution mass spectrometric analysis.

gambiense HAT infection = system: gambiense HAT infection; set-up: method as in PMID 36460027; conditions: single oral 960 mg, fasting, cited from earlier work
CYP3A4 = biological target: T1, CYP3A4 (Homo sapiens, UniProt P08684); assay: Incubation with CYP450 recombinant enzymes (Bactosomes) and NADPH; type: in vitro ADME; conditions: 1 µM
T1 construct: purchased
T1 sequence (P08684 whole entry): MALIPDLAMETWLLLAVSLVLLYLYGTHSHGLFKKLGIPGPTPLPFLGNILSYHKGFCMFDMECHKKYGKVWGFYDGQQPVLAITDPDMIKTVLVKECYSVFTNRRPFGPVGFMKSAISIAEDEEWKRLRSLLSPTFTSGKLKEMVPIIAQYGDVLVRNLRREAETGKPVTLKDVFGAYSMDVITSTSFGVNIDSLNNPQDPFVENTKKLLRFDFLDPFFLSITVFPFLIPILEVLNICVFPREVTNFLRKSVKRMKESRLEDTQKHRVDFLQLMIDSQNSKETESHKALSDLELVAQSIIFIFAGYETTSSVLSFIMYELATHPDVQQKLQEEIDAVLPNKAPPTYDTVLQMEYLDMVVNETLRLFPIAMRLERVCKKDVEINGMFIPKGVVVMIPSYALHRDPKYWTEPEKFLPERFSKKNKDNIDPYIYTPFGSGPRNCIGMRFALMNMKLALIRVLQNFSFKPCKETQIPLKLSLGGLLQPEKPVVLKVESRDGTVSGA

[3] = Plasma pharmacokinetics of acoziborole and SCYX-3109 by LC-MS/MS, phase I mass balance study; type: in vivo, human
Method: This single-center, open-label, single group, non-randomized, single oral dose study was performed at Quotient Sciences Ltd (Ruddington, Nottingham, UK). Clinical trial authorization was obtained from the Medicines and Healthcare Products Regulatory Agency (UK). Approval for administration of [^14C]-acoziborole was obtained from an expert committee sponsored by the Department of Health and Social Care in the United Kingdom (Administration of Radioactive Substances Advisory Committee [ARSAC]), and from the ARSAC-accredited Quotient Sciences’ nuclear medicine practitioner. This study was approved by a local research ethics committee in the United Kingdom and was conducted in compliance with the Declaration of Helsinki and the International Conference on Harmonisation E6 Guideline for Good Clinical Practice. The study was registered in clinicaltrials.gov (NCT04270981) and in EudraCT (reference 2019-004059-35). Written informed consent was obtained from all participants before undertaking any study-related procedures.
Participants were admitted in the evening of the day before dosing (Day −1) and were dosed in the morning of Day 1, following an overnight fast from food and drink of a minimum of 9 h. They remained fasted until approximately 4 h post-dose, at which time lunch was provided. Participants remained resident in the clinic until up to 240 h after dosing (up to Day 11). […] However, due to the COVID-19 pandemic, instead of returning for the outpatient visits, participants were requested to perform home collection of feces for a 48-h period (i.e., Days 31–33, Days 59–61, Days 89–91, and Days 119–121). Collected samples were couriered to the clinical unit at the end of each collection period. A follow-up call took place 5–10 days after the final outpatient visit to ensure the well-being of participants.
Venous blood samples were collected via an indwelling cannula or by venepuncture. A 12 mL sample was taken into heparinized glass tube and chilled on ice immediately before IP administration and 3 mL samples were taken at 1, 4, 9, 12, 24, 48, 72, 96, 120, 144, 168, and 240 h and on Days 15, 31, 59, 89, and 119 after IP administration. The first 0.5 mL of blood withdrawn via cannula was discarded. One aliquot of heparinized whole blood (1 mL) per time point was stored at or below −20°C for total radioactivity analysis. The remaining blood was centrifuged, and the harvested plasma was stored at approximately −20°C for bioanalysis or transferred (exactly 1 mL) into polypropylene tubes pre-filled with 5 µL formic acid. One plasma sample (0.5 mL) was used for metabolite profiling while another (0.5 mL) was used for parent drug and SCYX-3109 metabolite analysis. The remaining plasma was used for total radioactivity analysis.
SGS Belgium (Wavre, Belgium) performed the analysis to determine acoziborole and SCYX-3109 concentrations, using validated bioanalytical assays with liquid chromatography with tandem mass spectrometry (LC-MS/MS) with a Supelco Ascentis Express C8, 2.7 µm, 50 × 2.1 mm I.D. separation column. In plasma, the lower limit of quantification (LLOQ) was 25 ng/mL for acoziborole and 10 ng/mL for SCYX-3109. In urine, the LLOQ was 10 ng/mL for both acoziborole and SCYX-3109.
PK parameters were calculated based on actual sampling times using standard non-compartmental analysis and WinNonlin version 8.1 software (Certara, Princeton, NJ, USA).
The SCYX-3109 to parent ratios were calculated based on Cmax and AUC0–∞.

[4] = set-up: method as in PMID 21738803; conditions: rats; cited from earlier work

In the case of `CC1(C)OB(O)c2cc(NC(=O)c3ccc(F)cc3C(F)(F)F)ccc21` [acoziborole], the “concentration in the CSF as percentage of the plasma concentration” value ([1]; at each time point) is listed as “approximately 5%”, the absolute bioavailability ([1]; oral) is listed as 89% and the apparent permeability (MDCK-MDR1 cell monolayer) is listed as 77.6 ×10⁻⁶ cm/s. The “proportion of the dose excreted, urine and feces combined” value ([2]; 0–240 h pools) was 34.2%, the “abundance relative to dose, feces” value ([2]; feces homogenates 0–240 h) was 33.6% and the “relative abundance in radiochromatogram, feces homogenates pool” value ([2]; feces homogenates 0–240 h) was 66.0%. The “relative abundance in radiochromatogram (share of total radioactivity), plasma pool” value ([2]; plasma pool 0–336 h, 960 mg single oral [14C]-acoziborole, listed as Parent (acoziborole)) was 95.1%, the “abundance relative to dose, urine” value ([2]; urine pool 0–240 h) was 0.6% and < 1% and the “relative abundance in radiochromatogram, urine pool” value ([2]; urine pool 0–240 h) was 7.6%. For the same compound, the “abundance relative to dose, urine” value ([2]; urine pool 0–240 h, listed as Parent (acoziborole)) was 0.6%, the “safety and tolerability profile” value (gambiense HAT infection; 208 patients) was “acceptable safety and tolerability profile” and the “treatment success rate at 18 months” value (gambiense HAT infection; 159 out of 162 patients, evaluable population) was 98.1%. The “treatment success rate at 18 months” value (gambiense HAT infection; late-stage patients, modified intention-to-treat population) was 95.2%, the “metabolism by recombinant CYP3A4” value (CYP3A4) was “metabolized by” and the “mean t1/2 ratio of acoziborole to total radioactivity in blood” value ([3]; 960 mg single oral dose) was 1.1. For the same compound, the “mean t1/2 ratio of acoziborole to total radioactivity in plasma” value ([3]; 960 mg single oral dose) was 1.0, the “share of the radioactivity in plasma, based on AUC0–240h and AUC0–∞ ratios of acoziborole to total radioactivity” value ([3]; 960 mg single oral dose) was roughly 100% and the t1/2 in plasma ([3]; 960 mg single oral dose of acoziborole, N = 6, mean ± SD) was 272.1 ± 36.3 h. The “CL/F (apparent total body clearance)” value ([3]; 960 mg single oral dose, plasma, N = 6, mean ± SD) was 0.2 ± 0.0 L/h, the “time first detected in plasma after dosing” value ([3]; after 960 mg single oral [14C]-acoziborole) was 1 h and the AUC(0-t) ([3]; human, plasma, po, 960 mg, 960 mg single oral dose of acoziborole, N = 6, mean ± SD, read-out: AUC0–240h in plasma) was 2520 µg·h/mL. The AUC(0-t) ([3]; human, plasma, po, 960 mg, 960 mg single oral dose of acoziborole, N = 6, mean ± SD, read-out: AUC0–t in plasma) was 5920 µg·h/mL, the Tmax ([3]; human, plasma, po, 960 mg, 960 mg single oral dose of acoziborole, N = 6, mean ± SD, read-out: tmax in plasma) was 52 ± 9.8 h and the AUC(0-inf) ([3]; human, plasma, 960 mg single oral dose of acoziborole, N = 6, mean ± SD, read-out: AUC0–∞ in plasma) was 6450 µg·h/mL. It also gave a half-life ([3]; male, human, plasma, po, 960 mg, 960 mg single oral dose of acoziborole, N = 6, mean ± SD, read-out: t1/2 in plasma (converted)) of 272 h, a Tmax ([3]; male, human, plasma, po, 960 mg, 960 mg single oral dose, N = 6, read-out: individual tmax values in plasma) of 48 to 72 h and a Tmax ([3]; male, human, plasma, po, 960 mg, 960 mg single oral dose, N = 6, read-out: median tmax in plasma) of 48 h. For the same compound, the Cmax ([3]; male, human, plasma, 960 mg single oral dose of acoziborole, healthy males, N = 6, mean ± SD) was 14200 ± 1980 ng/mL, the Vd/F ([3]; male, human, 960 mg single oral dose, plasma, N = 6, mean ± SD, read-out: Vz/F (apparent volume of distribution during the terminal phase)) was 59.1 ± 7.3 L and the “brain to plasma AUC0–24h ratio” value [4] was 44%.
